Experimental data taken from patent EP1608360B1, “SYNERGISTIC HEPATOPROTECTIVE COMPOSITION AND A METHOD THEREOF” (COUNCIL OF SCIENTIFIC AND INDUSTRIAL RESEARCH, priority 2003, dated 2004).
“And” between values parts separate entries of the source, which are not always exact repeats. Equal entries are not always repeated. Where two headings read alike, the source gives them in different places.

Legend:
[1] = test system: Paracetamol (APAP) induced hepatic injury; type: in vivo; details: Table-2
Experimental: […] Formulation is extremely safe having a therapeutic index of > 40. No mortality was recorded upto a dose of 2g-kg-1 p.o. in mice.
Table-2: Hepatoprotective potential of Andrographolide (AP) against Paracetamol (APAP) induced hepatic injury in Rodents (prophylactic). […]

[2] = After 72 hrs; cited from earlier work
[3] = test system: paracetamol (APAP) induced hepatic injury; test: Hepatoprotective activity (in vivo) against paracetamol (APAP) induced hepatic injury in mice, prophylactic study (Table 1); details: 50 mg/kg p.o. + APAP
Experimental: All the list materials were administered P.O. routes in a uniform dose level of 50 mg kg-1. Formulation is extremely safe having a therapeutic index of > 40. No mortality was recorded upto a dose of 2g-kg-1 p.o. in mice.
• Fig.1 Low Power view 10 X of bridging necroses • Fig.2 High Power view 40X of bridging necroses • Fig.3 High Power view 40X of centrilobular necrosis • Fig.4 Lower Power view 10X of centrilobular necrosis • Fig.5 Effect of paracetamol on liver when given along with high doses of hepatoprotective formulations • Fig.6 Ballooning degeneration of cells along with cytoplasmic rarefaction clearing Table 1: Hepatoprotective activity (in vivo) of synergistic formulation and Silymarin agains paracetamol (APAP) induced hepatic injury in mice2. (prophylactic study)

[4] = test system: Acetaminophen (APAP) induced hepatic injury; test: Hepatoprotective activity (in vivo), pre-treatment, diethyl-ether inhalation plus Acetaminophen (APAP), prophylactic study (Table 4); set-up: species or system Mice: Swiss albino; details: 50 mg/kg p.o. at 72h, 48h, 24h, 1h before diethyl-ether and 1h after APAP 200mg/kg i.p.
Experimental: Table-4: Hepatoprotective activity (in vivo) of TCA and silymarin (Pre-treatment) fed at 72h, 48h, 24h, 1h before inhalation of diethyl - ether and 1h after Acetaminophen (APAP) 200mg/kg given i.p. 6h after exposure to diethyl - ether (prophylactic study).

[5] = 6.25 mg kg^-1 + APAP, prophylactic
[6] = 12.5 mg kg^-1 + APAP, prophylactic
[7] = 25 mg kg^-1 + APAP, prophylactic
[8] = 50 mg kg^-1 + APAP, prophylactic
[9] = 50 mg kg^-1 + APAP, prophylactic, listed as Andrographolide
[10] = 50 mg kg^-1 + APAP, prophylactic, listed as andrographolide
[11] = 50 mg kg^-1 only (per se), no APAP
[12] = 100 mg kg^-1 + APAP, prophylactic

C=C1CC[C@@H]2[C@](C)(CO)[C@H](O)CC[C@@]2(C)[C@@H]1C/C=C1/C(=O)OC[C@H]1O [AP, andrographolide]
Hepatic GSH (glutathione) [1, 5]: 2.85±0.19 µ mole GSH/g liver
Hepatic GSH, percent hepatoprotective activity [1, 5]: (17.40) %
Hepatic LP (lipid peroxidation) [1, 5]: 58.96±2.04 n mole MDA/g liver
Hepatic LP, percent hepatoprotective activity [1, 5]: (10.61) %
Hepatic Protein [1, 5]: 133.20±5.39 mg %
Hepatic Protein, percent hepatoprotective activity [1, 5]: (6.75) %
Serum ALP [1, 5]: 55.84±2.27 µ mole of p-nitrophenol formed /min/L
Serum ALP, percent hepatoprotective activity [1, 5]: (18.49) %
Serum Albumin [1, 5]: 3.10±0.08 g %
Serum Albumin, percent hepatoprotective activity [1, 5]: (32.84) %
Serum GOT [1, 5]: 992.69±66.36 Units
Serum GOT, percent hepatoprotective activity [1, 5]: (14.54) %
Serum GPT [1, 5]: 1224.99±63.65 Units
Serum GPT, percent hepatoprotective activity [1, 5]: (20.76) %
Serum LDH [1, 5]: 1454.48±66.02 units
Serum LDH, percent hepatoprotective activity [1, 5]: (25.45) %
Serum TG [1, 5]: 63.92±2.11 mg %
Serum TG, percent hepatoprotective activity [1, 5]: (24.17) %
Hepatic GSH (glutathione) [1, 6]: 3.78±0.19 µ mole GSH/g liver
Hepatic GSH, percent hepatoprotective activity [1, 6]: (40.19) %
Hepatic LP (lipid peroxidation) [1, 6]: 53.10±2.07 n mole MDA/g liver
Hepatic LP, percent hepatoprotective activity [1, 6]: (46.23) %
Hepatic Protein [1, 6]: 141.36±4.25 mg %
Hepatic Protein, percent hepatoprotective activity [1, 6]: (23.52) %
Serum ALP [1, 6]: 49.41±1.35 µ mole of p-nitrophenol formed /min/L
Serum ALP, percent hepatoprotective activity [1, 6]: (37.13) %
Serum Albumin [1, 6]: 3.29±0.15 g %
Serum Albumin, percent hepatoprotective activity [1, 6]: (47.02) %
Serum GOT [1, 6]: 816.54±47.10 Units
Serum GOT, percent hepatoprotective activity [1, 6]: (32.07) %
Serum GPT [1, 6]: 1051.99±46.30 Units
Serum GPT, percent hepatoprotective activity [1, 6]: (33.12) %
Serum LDH [1, 6]: 1255.65±61.32 units
Serum LDH, percent hepatoprotective activity [1, 6]: (37.14) %
Serum TG [1, 6]: 56.59±2.42 mg %
Serum TG, percent hepatoprotective activity [1, 6]: (41.39) %
Hepatic GSH (glutathione) [1, 7]: 4.15±0.15 µ mole GSH/g liver
Hepatic GSH, percent hepatoprotective activity [1, 7]: (49.26) %
Hepatic LP (lipid peroxidation) [1, 7]: 50.62±2.23 n mole MDA/g liver
Hepatic LP, percent hepatoprotective activity [1, 7]: (51.45) %
Hepatic Protein [1, 7]: 148.36±3.57 mg %
Hepatic Protein, percent hepatoprotective activity [1, 7]: (37.92) %
Serum ALP [1, 7]: 43.92±2.19 µ mole of p-nitrophenol formed /min/L
Serum ALP, percent hepatoprotective activity [1, 7]: (53.04) %
Serum Albumin [1, 7]: 3.32±0.15 g %
Serum Albumin, percent hepatoprotective activity [1, 7]: (49.25) %
Serum GOT [1, 7]: 720.76±50.62 Units
Serum GOT, percent hepatoprotective activity [1, 7]: (41.40) %
Serum GPT [1, 7]: 881.23±36.85 Units
Serum GPT, percent hepatoprotective activity [1, 7]: (45.45) %
Serum LDH [1, 7]: 1014.27±44.04 units
Serum LDH, percent hepatoprotective activity [1, 7]: (51.34) %
Serum TG [1, 7]: 51.68±2.73 mg %
Serum TG, percent hepatoprotective activity [1, 7]: (52.92) %
Hepatic GSH (glutathione) [1, 8]: 4.400±0.25 µ mole GSH/g liver
Hepatic GSH, percent hepatoprotective activity [1, 8]: (57.35) %
Hepatic LP (lipid peroxidation) [1, 8]: 47.90±1.93 n mole MDA/g liver
Hepatic LP, percent hepatoprotective activity [1, 8]: (58.35) %
Hepatic Protein [1, 8]: 155.34±3.11 mg %
Hepatic Protein, percent hepatoprotective activity [1, 8]: (52.27) %
Serum ALP [1, 8]: 40.18±2.03 µ mole of p-nitrophenol formed /min/L
Serum ALP, percent hepatoprotective activity [1, 8]: (63.88) %
Serum Albumin [1, 8]: 3.55±0.18 g %
Serum Albumin, percent hepatoprotective activity [1, 8]: (66.41) %
Serum GOT [1, 8]: 534.56±19.65 Units
Serum GOT, percent hepatoprotective activity [1, 8]: (60.14) %
Serum GPT [1, 8]: 760.73±49.35 Units
Serum GPT, percent hepatoprotective activity [1, 8]: (54.15) %
Serum LDH [1, 8]: 952.45±34.82 units
Serum LDH, percent hepatoprotective activity [1, 8]: (54.97) %
Serum TG [1, 8]: 49.22±1.78 mg %
Serum TG, percent hepatoprotective activity [1, 8]: (58.70) %
Hepatic GSH, percent hepatoprotective activity [1, 9]: 57.35%
Hepatic LP, percent hepatoprotective activity [1, 9]: 58.35%
Hepatic Protein, percent hepatoprotective activity [1, 9]: 52.27%
Serum ALP, percent hepatoprotective activity [1, 9]: 63.88%
Serum Albumin, percent hepatoprotective activity [1, 9]: 66.41%
Serum GOT, percent hepatoprotective activity [1, 9]: 60.14%
Serum GPT, percent hepatoprotective activity [1, 9]: 54.15%
Serum LDH, percent hepatoprotective activity [1, 9]: 54.97%
Serum TG, percent hepatoprotective activity [1, 9]: 58.70%
Hepatic GSH, percent hepatoprotective activity [1, 10]: 57.35%
Hepatic LP, percent hepatoprotective activity [1, 10]: 58.35% and 55.35%
Serum ALP, percent hepatoprotective activity [1, 10]: 63.88%
Serum Albumin, percent hepatoprotective activity [1, 10]: 66.41%
Serum GOT, percent hepatoprotective activity [1, 10]: 60.14%
Serum GPT, percent hepatoprotective activity [1, 10]: 54.15%
Serum LDH, percent hepatoprotective activity [1, 10]: 54.97%
Serum TG, percent hepatoprotective activity [1, 10]: 58.70%
Hepatic GSH (glutathione) [1, 11]: 6.40±0.21 µ mole GSH/g liver
Hepatic LP (lipid peroxidation) [1, 11]: 31.60±2.09 n mole MDA/g liver
Hepatic Protein [1, 11]: 182.05±10.23 mg %
Serum ALP [1, 11]: 27.72±2.71 µ mole of p-nitrophenol formed /min/L
Serum Albumin [1, 11]: 3.96±0.08 g %
Serum GOT [1, 11]: 134.92±4.25 Units
Serum GPT [1, 11]: 126.11±3.09 Units
Serum LDH [1, 11]: 181.02±10.29 units
Serum TG [1, 11]: 32.29±2.31 mg %
Hepatic GSH (glutathione) [1, 12]: 4.60±0.24 µ mole GSH/g liver
Hepatic GSH, percent hepatoprotective activity [1, 12]: (60.29) %
Hepatic LP (lipid peroxidation) [1, 12]: 45.30±2.08 n mole MDA/g liver
Hepatic LP, percent hepatoprotective activity [1, 12]: (64.95) %
Hepatic Protein [1, 12]: 146.78±5.09 mg %
Hepatic Protein, percent hepatoprotective activity [1, 12]: (34.66) %
Serum ALP [1, 12]: 44.14±2.24 µ mole of p-nitrophenol formed /min/L
Serum ALP, percent hepatoprotective activity [1, 12]: (52.40) %
Serum Albumin [1, 12]: 3.38±0.26 g %
Serum Albumin, percent hepatoprotective activity [1, 12]: (53.73) %
Serum GOT [1, 12]: 795.92±27.59 Units
Serum GOT, percent hepatoprotective activity [1, 12]: (34.12) %
Serum GPT [1, 12]: 764.37±44.32 Units
Serum GPT, percent hepatoprotective activity [1, 12]: (53.89) %
Serum LDH [1, 12]: 1256.05±33.97 units
Serum LDH, percent hepatoprotective activity [1, 12]: (37.11) %
Serum TG [1, 12]: 47.39±2.13 mg %
Serum TG, percent hepatoprotective activity [1, 12]: (63.00) %
excreted, mostly by urinary excretion [2]: ~90%

CCCCCCCC/C=C/CCCCCCCCCCCCCC(=O)O [TCA, trans-tetracos-15-enoic acid]
Hepatic Glutathione, percent hepatoprotective activity [3]: 53.15%
Hepatic Lipid peroxidation, percent hepatoprotective activity [3]: 64.15%
Serum ALP, percent hepatoprotective activity [3]: 82.35%
Serum GOT, percent hepatoprotective activity [3]: 62.00%
Serum GPT, percent hepatoprotective activity [3]: 75.00%
Serum Triglycerides, percent hepatoprotective activity [3]: 66.45%
Hepatic Lipid peroxidation [4]: 55.48 n moles MDA/g liver
Serum ALP [4]: 52.96 µ mole of p-nitrophenol formed/min/ L
Serum Bilirubin [4]: 56.35 mg %
Serum GOT [4]: 54.92 Units
Serum GPT [4]: 57.99 Units
Serum Triglycerides [4]: 66.05 mg %
Serum ALP ([4]; listed as t-tca): 52.96 µ mole of p-nitrophenol formed
